Reference: patent publication US8044066B2, “Derivatives of pyrrolopyridine-2-carboxamides, preparation thereof and therapeutic application thereof” (Sanofi-Aventis, priority 2007, dated 2011)

Assays:
TRPV1 receptor = molecular target: T1, TRPV1 receptor (Rattus norvegicus, UniProt O35433); experiment: Inhibition of the current induced with capsaicin on rat DRGs (whole-cell patch-clamp); assay type: cell-based; settings: DRG neuron; compound at 10 nM; capsaicin 1 μM; newborn rat DRG neurons
T1 construct: The neurons of the DRG naturally express the TRPV1 receptor; endogenous in cells; host or cells: primary culture of newborn rat dorsal root ganglion (DRG) neurons
Method: Test of Inhibition of the Current Induced with Capsaicin on Rat DRGs
Primary Culture of Rat Dorsal Root Ganglion (DRG) Cells:
The neurons of the DRG naturally express the TRPV1 receptor.
The primary cultures of newborn rat DRGs are prepared using 1-day-old rats. Briefly, after dissection, the ganglions are trypsinized and the cells dissociated by mechanical trituration. The cells are resuspended in an Eagle basal culture medium containing 10% fetal calf serum, 25 mM KCl, 2 mM glutamine, 100 μg/ml gentamicin and 50 ng/ml of NGF, and then deposited on glass slides coated with laminin (0.25×10^6 cells per slide), which are then placed in Corning 12-well dishes. The cells are incubated at 37° C. in a humidified atmosphere containing 5% CO2 and 95% air. […]
The measuring chambers (volume 800 μl) containing the cell preparation are placed on the platform of an inverted microscope (Olympus IMT2) equipped with Hoffman optics (Modulation Contrast, New York) and observed at a magnification of 400×. […] The overall currents (membrane potential set at −60 mV) are recorded with an Axopatch 1D amplifier (Axon Instruments, Foster city, Calif.), connected to a PC running the Pclamp8 software (Axon Instrument). The current plots are recorded on paper and simultaneously digitized (sampling frequency 15 to 25 Hz) and acquired on the hard drive of the PC. […]

T1 sequence (O35433 whole entry): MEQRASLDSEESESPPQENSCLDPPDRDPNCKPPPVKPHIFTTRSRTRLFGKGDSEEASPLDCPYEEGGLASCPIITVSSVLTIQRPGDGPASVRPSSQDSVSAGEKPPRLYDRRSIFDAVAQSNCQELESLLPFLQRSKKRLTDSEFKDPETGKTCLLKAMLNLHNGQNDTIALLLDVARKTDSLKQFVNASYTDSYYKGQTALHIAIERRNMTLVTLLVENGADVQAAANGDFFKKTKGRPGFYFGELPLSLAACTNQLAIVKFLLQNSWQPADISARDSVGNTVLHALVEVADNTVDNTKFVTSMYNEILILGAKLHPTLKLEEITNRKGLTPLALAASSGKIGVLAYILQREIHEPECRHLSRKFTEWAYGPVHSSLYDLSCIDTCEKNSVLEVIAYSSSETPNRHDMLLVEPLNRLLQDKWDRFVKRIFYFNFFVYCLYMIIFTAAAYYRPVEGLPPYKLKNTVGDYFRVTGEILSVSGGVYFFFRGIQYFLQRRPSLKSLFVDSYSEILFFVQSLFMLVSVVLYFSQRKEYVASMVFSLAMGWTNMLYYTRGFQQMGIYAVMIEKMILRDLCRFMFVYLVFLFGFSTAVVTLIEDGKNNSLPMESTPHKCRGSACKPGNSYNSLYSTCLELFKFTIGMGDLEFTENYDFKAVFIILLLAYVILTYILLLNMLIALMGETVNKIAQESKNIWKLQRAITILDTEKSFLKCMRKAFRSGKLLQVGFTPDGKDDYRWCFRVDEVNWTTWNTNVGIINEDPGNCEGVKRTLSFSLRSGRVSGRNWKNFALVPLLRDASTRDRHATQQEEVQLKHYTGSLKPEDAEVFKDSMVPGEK

SMILES	inhibition at 0.01 µM (TRPV1 receptor)	melting point
Cc1nc2cc(NC(=O)c3cc4cc(F)cnc4n3Cc3ccncc3)ccc2s1 [Compound 1, N-(2-methylbenzothiazol-5-yl)-5-fluoro-1-[(4-pyridyl)methyl]-1H-pyrrolo[2,3-b]pyridine-2-carboxamide]	50%	–
Cc1nc2cc(NC(=O)c3cc4cccnc4n3-c3ccncc3)ccc2s1	–	236 to 238 °C
